Source: US20050148634A1, “1-N-Aminobenzimidazole derivatives” (ZERIA PHARMACEUTICAL CO., LTD, priority 2002, published 2005)
pIC50: −log10 of the molar value.

What was measured:
[1] = system: histamine-stimulated gastric acid secretion; test: Test 2 gastric acid secretion inhibitory effect, acute fistula method; assay type: in vivo, Sprague-Dawley (SD) rats; details: male SD rats, administered into the duodenum, total gastric acid secreted on 3rd-5th hours, Probit method; for ED50: Rattus norvegicus
Protocol: Test 2 (Gastric Acid Secretion Inhibitory Effect)
(1) As laboratory animals, seven-week old male Sprague-Dawley (SD) rats were purchased from CHARLES RIVER JAPAN, INC. Subsequent to preliminary rearing for 5 days or longer, they were used in an experiment.
Each test medicine was suspended or dissolved in a 0.5% carboxymethylcellulose sodium solution to prepare a volume of 2.5 mL/kg.
(2) Measurement of Gastric Acid Secretion
Using rats fasted for 18 hours, histamine-stimulated gastric acid secretion in an acute fistula method following the method reported by Hiramatsu et al. (Dig. Dis. Sci., 39, 689-697 (1994)) was measured. Described specifically, each rat was lightly anesthetized with diethyl ether. After that, a winged tube needle with 3.8% citric acid solution filled therein was caused to dwell in the caudal vein. Celiotomy was performed, and the pyloric part of the stomach was ligated. A small hole was then formed in the duodenum, and a feeding tube with physiological saline filled therein was caused to dwell there. After the interior of the stomach was washed with physiological saline, a polyethylene-made fistula tube (inner diameter: 4 mm) was fitted to the proventriculus part and an incised part of the proventriculus was ligated to hold the fistula tube in place. The stomach and duodenum were returned into the abdominal cavity. Celiotomy was performed with the fistula tube and feeding tube being left extending outside, and the rat was placed in a Ballman Cage Type II. Histamine was continuously injected through the winged needle allowed to dwell in the caudal vein (8 mg/kg/h, 1.38 mL/h). Fifteen minutes later, the gastric juice was sampled, and after that, the gastric juice was sampled at intervals of 1 hour. After the amount of each gastric juice sample was recorded, it was titrated with 0.1 mol/L NaOH to a final point of pH 7.0. From the volume required for the titration, the acidity was calculated. The quantity of the secreted gastric acid was determined from the product of the amount of the gastric juice and the acidity. Incidentally, the rats were divided into groups such that the total amount of the first gastric juice samples became equal in each group. Each test medicine was administered in a volume of 2.5 mL/kg into the duodenum through the feeding tube fitted beforehand in the duodenum. To a control group, 0.5% Na—CMC solution was administered.
(3) Analysis of the Results
From the results so obtained, data were presented in terms of average ±S.D. The sum of quantities of gastric acid secreted on the 3rd, 4th and 5th hours after the first sampling was recorded as a total quantity of secreted gastric acid. The percent inhibition in each group was calculated from the total quantity of secreted gastric acid in the control group and the total quantity of secreted gastric acid in the group. From the percent inhibition in each group, the 50% effective dose (ED50) was next calculated by the Probit method.

[2] = molecular target: T1, human CYP2C19 (Homo sapiens, UniProt P33261); test: Test 3 human CYP2C19 activity inhibition test (S-(+)-mephenyloin to 4'-hydroxymephenyloin); assay type: in vitro ADME; details: test compound 10 μM, microsomes from human CYP2C19 expression system, formed 4'-hydroxymephenyloin compared with control
T1 construct: purchased Sumitomo Chemical Co., Ltd
T1 sequence (P33261 whole entry): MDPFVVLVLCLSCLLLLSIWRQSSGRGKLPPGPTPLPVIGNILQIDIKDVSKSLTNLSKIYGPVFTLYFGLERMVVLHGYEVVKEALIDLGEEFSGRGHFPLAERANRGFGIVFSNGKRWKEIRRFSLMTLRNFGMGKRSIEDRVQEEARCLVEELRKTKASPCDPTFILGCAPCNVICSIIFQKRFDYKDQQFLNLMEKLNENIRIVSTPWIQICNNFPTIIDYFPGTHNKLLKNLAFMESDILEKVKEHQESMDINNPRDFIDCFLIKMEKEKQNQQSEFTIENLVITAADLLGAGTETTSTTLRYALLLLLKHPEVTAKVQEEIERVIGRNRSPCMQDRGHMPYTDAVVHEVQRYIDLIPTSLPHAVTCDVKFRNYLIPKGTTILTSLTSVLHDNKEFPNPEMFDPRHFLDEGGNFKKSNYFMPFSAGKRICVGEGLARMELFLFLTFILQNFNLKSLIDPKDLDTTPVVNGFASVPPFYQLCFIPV
Protocol: Test 3 (Human CPY2C19 Activity Inhibition Test)
CYP2C19 specifically induces the metabolic reaction of from S-(+)-mephenyloin into 4′-hydroxymephenyloin. Using the CYP2C19 expression system, the inhibitory effect of each test substance was investigated based on the amount (concentration) of formed 4′-hydroxymephenylion as an index of CYP2C19 activity.
a) Metabolic Activity Test
As a reaction mixture, a 125 μmol/L solution of S-(+)-mephenyloin in methanol (50 μL) and a 25 μmol/L solution of each test substance in methanol (0, 10, 100 or 200 μL) were added to 10-mL test tube made of glass, and the solvent was distilled off under a nitrogen gas stream (40° C.).
After incubated at 37° C. for 10 minutes, a 12% aqueous solution of perchloric acid (50 μL) was added to terminate the reaction.
Subsequent to the termination of the reaction, 10 μg/mL methyl p-hydroxybenzoate (50 μL) as an internal standard (I.S.) and diethyl ether (2 mL) were added. The resulting mixture was shaken for 10 minutes, and then centrifuged (3,000 rpm, 10 minutes). The organic layer was separately collected, and under a nitrogen gas stream (40° C.), the solvent was distilled off. The residue was dissolved in a mobile phase (200 μL), and an analysis was conducted by high performance liquid chromatography (HPLC).
Using a solution of 4′-hydroxymephenyloin in lieu of the S-(+)-mephenyloin solution, a calibration line was prepared following the above-described reaction method. Quantitation was conducted based on a peak area ratio of 4′-hydroxymephenyloin to the I.S. Comparing the formed amount of 4′-hydroxymephenyloin as a control with that of 4′-hydroxymephenyloin at the time of the existence of the test compound, the comparison result was used as an index of activity.
HPLC was conducted under the following HPLC conditions A or HPLC conditions B. […]

[3] = molecular target: T2, H+/K+-ATPase (Sus scrofa, UniProt P19156); test: Test 1 proton pump inhibitory effect: H+/K+-ATPase enzyme inhibiting activity at pH 1; assay type: biochemical; details: swine stomach enzyme sample; test compound pretreated in pH 1 hydrochloric acid solution with 50% DMSO for 15 minutes; ATP substrate
T2 construct: An interface fraction obtained by the centrifugation was collected; from tissue; host or cells: swine stomach mucosal layer, membrane fraction from the sucrose interface
T2 sequence (P19156 2-1034 limits assumed): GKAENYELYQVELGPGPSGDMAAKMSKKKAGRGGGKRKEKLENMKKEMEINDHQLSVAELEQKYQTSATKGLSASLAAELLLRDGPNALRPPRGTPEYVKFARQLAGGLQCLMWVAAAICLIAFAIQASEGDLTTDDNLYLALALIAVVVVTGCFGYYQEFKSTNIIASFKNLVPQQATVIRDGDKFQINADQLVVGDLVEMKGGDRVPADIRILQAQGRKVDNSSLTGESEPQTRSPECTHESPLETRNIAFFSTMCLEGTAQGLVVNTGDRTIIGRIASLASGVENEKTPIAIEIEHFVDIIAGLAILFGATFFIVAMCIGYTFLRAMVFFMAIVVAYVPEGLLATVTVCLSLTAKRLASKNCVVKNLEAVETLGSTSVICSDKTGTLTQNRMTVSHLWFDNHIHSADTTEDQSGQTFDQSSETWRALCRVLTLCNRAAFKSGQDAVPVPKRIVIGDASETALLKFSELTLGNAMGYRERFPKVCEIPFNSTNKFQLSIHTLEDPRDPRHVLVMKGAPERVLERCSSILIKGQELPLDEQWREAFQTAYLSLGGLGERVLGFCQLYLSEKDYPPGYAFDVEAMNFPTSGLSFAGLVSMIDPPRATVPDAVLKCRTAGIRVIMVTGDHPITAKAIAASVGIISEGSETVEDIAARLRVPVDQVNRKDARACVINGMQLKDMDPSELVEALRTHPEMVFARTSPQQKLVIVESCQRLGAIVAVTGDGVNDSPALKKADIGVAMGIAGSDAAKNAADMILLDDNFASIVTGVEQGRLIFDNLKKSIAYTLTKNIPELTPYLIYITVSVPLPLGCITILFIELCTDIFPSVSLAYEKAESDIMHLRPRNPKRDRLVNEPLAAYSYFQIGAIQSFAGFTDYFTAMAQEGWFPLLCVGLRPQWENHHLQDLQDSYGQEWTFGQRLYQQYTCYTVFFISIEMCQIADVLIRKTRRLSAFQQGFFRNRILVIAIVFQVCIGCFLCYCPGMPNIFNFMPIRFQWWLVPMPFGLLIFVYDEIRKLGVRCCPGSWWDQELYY
T2 sequence (P18434 whole entry partner): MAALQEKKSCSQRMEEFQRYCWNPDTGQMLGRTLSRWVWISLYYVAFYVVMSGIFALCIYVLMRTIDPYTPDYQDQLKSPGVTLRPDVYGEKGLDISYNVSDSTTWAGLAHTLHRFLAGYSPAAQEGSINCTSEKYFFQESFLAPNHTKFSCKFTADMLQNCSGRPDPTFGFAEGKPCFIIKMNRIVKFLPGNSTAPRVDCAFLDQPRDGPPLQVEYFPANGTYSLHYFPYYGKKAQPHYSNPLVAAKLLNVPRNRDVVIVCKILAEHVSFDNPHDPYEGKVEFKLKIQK
Protocol: Test 1 (Proton Pump Inhibitory Effect)
(1) Preparation of H^+/K^+-ATPase Enzyme Sample
A swine stomach which had been stored frozen was separated into a muscularis and a mucosal layer. After the mucosal layer was disrupted with a mixer in 5 volumes of 20 mmol/L tris-HCl buffer containing 0.25 mol/L of sucrose and 1 mmol/L of EGTA (pH 7.4, hereafter abbreviated as “tris-HCl buffer”), centrifugation was conducted at 9,000×g for 30 minutes. The supernatant was gently overlaid on 20 mmol/L tris-HCl buffer containing 30% of sucrose and 1 mmol/L of EGTA (pH 7.4, 8 mL), followed by ultracentrifugation at 100,000×g for 60 minutes. An interface fraction obtained by the centrifugation was collected and subjected to centrifugation twice under 113,000×g for 60 minutes. The sediment was suspended with tris-HCl buffer, and the suspension was homogenized at low rotational speed to provide an enzyme sample. The enzyme sample was stored frozen at −80° C. Using the method reported by Smith et al. (Anal. Biochem., 150, 76-85 (1985)), the thus-obtained sample was quantitatively analyzed for its protein content with a BCA protein assay reagent. The above procedure was all conducted under water cooling.
(2) Discussion about H+/K^+-ATPase Enzyme Inhibiting Activity at pH 1
Following a method making use of a method for the quantitation of inorganic phosphorus as a degradation product (Biochem. Biophys. Res. Commun., 40, 880-886 (1970)), an assay of H^+/K^+-ATPase enzyme inhibiting activity was performed by using ATP as a substrate. As a hydrochloric acid solution for the pretreatment of each test compound, a 1×10^−1 mol/L (pH 1) solution of hydrochloric acid with 50% DMSO contained therein was used. Solutions of each test compound at various concentrations were added to aliquots of the hydrochloric acid solution such that the solutions were diluted 1,000-fold, and the thus-diluted solutions were left over at room temperature for 15 minutes. […] 840-μL Aliquots of an enzyme solution (5 μg proteins) diluted with the TE buffer were then added. After incubated at 37° C. for 30 minutes, 50-μL aliquots of 40 mmol/LATP solution (dissolved in the TE buffer free of KCl) were added to initiate an enzymatic reaction (total volume: 1 mL, final ATP concentration: 2 mmol/L). Subsequent to incubation at 37° C. for 30 minutes, 2-mL aliquots of ice-cold 12% trichloroacetic acid were added to terminate the enzymatic reaction. A molybdenum reagent (1 mL; 3.75% ammonium molybdate/1.5 mol/L sulfuric acid) and butyl acetate (5 mL) were added. After vigorous shaking and mixing for 5 minutes, the absorbance of a butyl acetate layer was measured at 310 nm. From absorbances obtained by dissolving KH2PO4 solutions of various concentrations in aliquots of an 8% TCA solution and performing a similar procedure, a standard curve was prepared to perform a conversion of each quantity of inorganic phosphorus. The assay was conducted in duplicate. From a difference between an average quantity of inorganic phosphorus in the case of the KCl-containing TE buffer and an average quantity of inorganic phosphorus in the case of the KCl-free TE buffer, a residual activity was determined. Supposing that the activity of the control value (DMSO) was 100%, the percent inhibition of the compound was calculated. As the inhibition potency of each test compound, an IC50 value was calculated and presented. The test compounds were al used by dissolving them in dimethyl sulfoxide immediately before their use.

CYP2C19 activity inhibition (%) [2] [%]	Compound	also measured
63.8	Cc1c(OCC(F)(F)F)ccnc1C[S+]([O-])c1nc2ccccc2n1NCC(C)O (mixture of isomers) [Example 55]	Gastric acid secretion inhibitory effect ED50 [1]: 3.6 mg/kg
72.1	COCCCOc1ccnc(C[S+]([O-])c2nc3ccccc3n2NCC(C)O)c1C (mixture of isomers) [Example 63]	–
75.6	Cc1c(OCCOCC(F)(F)F)ccnc1C[S+]([O-])c1nc2ccccc2n1N (racemic) [Example 23]	–
–	Cc1c(OCCCC(F)(F)F)ccnc1C[S+]([O-])c1nc2ccccc2n1N (racemic) [Example 25]	Gastric acid secretion inhibitory effect ED50 [1]: 1.1 mg/kg
–	Cc1c(OCC(F)(F)F)ccnc1C[S+]([O-])c1nc2ccccc2n1NCCCO (racemic) [Example 36]	CYP2C19 activity inhibition (%) ([2]; listed as Racemic mixture of Example 36, 10 µM): 61.7%
–	COC(=O)CNn1c([S+]([O-])Cc2nccc(OCC(F)(F)F)c2C)nc2ccccc21 (racemic) [Example 47]	pIC50 [3]: 5.31
–	COCCCOc1ccnc(C[S+]([O-])c2nc3ccccc3n2NCCCO)c1C (racemic) [Example 57]	CYP2C19 activity inhibition (%) ([2]; listed as Racemic mixture of Example 57, 10 µM): 73%
67.3	COCCOc1ccnc(C[S+]([O-])c2nc3ccccc3n2NCCCO)c1C (racemic) [Example 58]	–
61.7	COc1c(OCC(F)(F)F)ccnc1C[S+]([O-])c1nc2ccccc2n1NCCCO (racemic) [Example 59]	–
71.4	Cc1c(OCCOCC(F)(F)F)ccnc1C[S+]([O-])c1nc2ccccc2n1NCCCO (racemic) [Example 60]	–
64.8	COc1c(OCCOCC(F)(F)F)ccnc1C[S+]([O-])c1nc2ccccc2n1NCCCO (racemic) [Example 61]	–
95.3	Cc1c(OCCCOCC(F)(F)F)ccnc1C[S+]([O-])c1nc2ccccc2n1NCCCO (racemic) [Example 62]	–
–	Cc1c(OCC(F)(F)F)ccnc1C[S+]([O-])c1nc2ccccc2n1NCCCO (single isomer, unassigned; (+)) [(+) Isomer of Example 36]	Gastric acid secretion inhibitory effect ED50 [1]: 1.1 mg/kg; CYP2C19 activity inhibition (%) ([2]; 10 µM): 70.6%
–	COCCCOc1ccnc(C[S+]([O-])c2nc3ccccc3n2NCCCO)c1C (single isomer, unassigned; (+)) [(+) Isomer of Example 57]	CYP2C19 activity inhibition (%) ([2]; 10 µM): 67.4%
–	COCCCOc1ccnc(C[S+]([O-])c2nc3ccccc3n2NCCCO)c1C (single isomer, unassigned; (-)) [(−) Isomer of Example 57]	CYP2C19 activity inhibition (%) ([2]; 10 µM): 77.6%
35.4	COc1ccc2nc([S@@+]([O-])Cc3ncc(C)c(OC)c3C)[nH]c2c1 [Esomeprazole, esomeprazole, reference compound]	ED50 [1]: 2.9 mg/kg
8.7	Cc1c(OCC(F)(F)F)ccnc1C[S+]([O-])c1nc2ccccc2[nH]1 (centres unmarked) [Lansoprazole, lansoprazole, reference compound]	ED50 [1]: 1.1 mg/kg
18.4	COc1ccc2[nH]c([S+]([O-])Cc3ncc(C)c(OC)c3C)nc2c1 (centres unmarked) [Omeprazole, omeprazole, reference compound]	ED50 [1]: 3.6 mg/kg
33.1	COc1ccnc(C[S+]([O-])c2nc3ccc(OC(F)F)cc3[nH]2)c1OC (centres unmarked) [Pantoprazole, pantoprazole, reference compound]	ED50 [1]: 0.34 mg/kg
39.8	COCCCOc1ccnc(C[S+]([O-])c2nc3ccccc3[nH]2)c1C (centres unmarked) [Rabeprazole, rabeprazole, reference compound]	ED50 [1]: 2.5 mg/kg

Compound	CYP2C19 activity inhibition (%) [2] [%]	also measured
COCCCOc1ccnc(C[S+]([O-])c2nc3ccccc3n2N)c1C (racemic) [Example 21]	78.6	–
COc1c(OCCOCC(F)(F)F)ccnc1C[S+]([O-])c1nc2ccccc2n1N (racemic) [Example 24]	81.9	–
COc1c(OCCCC(F)(F)F)ccnc1C[S+]([O-])c1nc2ccccc2n1N (racemic) [Example 26]	73.2	Gastric acid secretion inhibitory effect ED50 [1]: 2.6 mg/kg
Cc1c(OCC(F)(F)F)ccnc1C[S+]([O-])c1nc2ccccc2n1NCCN(C)C (racemic) [Example 48]	72.3	–
